Results reported in article PMC9571608, “Detection of Bitterness in Vitamins Is Mediated by the Activation of Bitter Taste Receptors” (Nutrients, 2022).
Several values for one entry are separate records, joined by “and”; a condition that tells them apart may be missing. Equal values may be shown once. Where a name gives a salt, the structure may show the parent alone.

Experiments:
[1] = target: T1, TAS2R14 (Homo sapiens, UniProt Q9NYV8); test: Calcium mobilization assay, cells transiently expressing TAS2R14; type: cell-based; as to TAS2R Receptor 14 response: key: +: positive responses (lines with background color)
T1 construct: expressed in transfected cells; host or cells: HEK293T cells stably expressing Gα16gust44
T1 sequence (Q9NYV8 1-317): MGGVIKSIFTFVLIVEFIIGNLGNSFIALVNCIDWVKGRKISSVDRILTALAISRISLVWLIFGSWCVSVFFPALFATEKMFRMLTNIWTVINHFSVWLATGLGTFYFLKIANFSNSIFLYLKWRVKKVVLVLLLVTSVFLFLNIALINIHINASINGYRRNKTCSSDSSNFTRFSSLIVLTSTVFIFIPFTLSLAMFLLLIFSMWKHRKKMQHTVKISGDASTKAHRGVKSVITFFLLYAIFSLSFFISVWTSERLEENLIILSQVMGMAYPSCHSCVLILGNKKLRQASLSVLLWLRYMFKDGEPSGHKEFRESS
Description: (§1) A functional expression study was carried out as described previously. TAS2R expression vectors (pcDNA5FRT-SST3-TAS2R-HSV and pEAK-10-SST3-TAS2RHSV) were kindly provided by Wolfgang Meyerhof (German Institute of Human Nutrition Postdam-Rehbruecke, Nuthetal, Germany). For all constructs, the N-terminus contained the first 45 amino acids of rat somatostatin 3 (SST3) to improve membrane targeting. A sequence coding for a herpes simplex virus glycoprotein D epitope (HSV-tag) was added at the C-terminus to allow immunocytochemical detection of the receptor [13, 14, 23, 24]. HEK293T cells stably expressing the chimeric G protein α subunit Gα16gust44 [25, 26] were seeded into poly-D-lysine-coated 96-well black plates (0.35 × 10^5 cells/well) in high-glucose DMEM supplemented with 2 mM GlutaMAX, 10% dialysed fetal bovine serum penicillin/streptomycin, and G418 (400 µg/mL), and then placed under a humidified and controlled atmosphere (37 °C and 6.3% CO2) overnight. […]
(§2) Approximately 24–26 h after transfection, cells were loaded for 1 h at 37 °C with Fluo4-AM (2 µM, Molecular Probes), which had been previously mixed with pluronic acid F-127 (0.01%) in C1 buffer (130 mM NaCl, 5 mM KCl, 10 mM HEPES, 2 mM CaCl2, 10 mM pyruvic acid, pH 7.4, 300 mOsm) containing 2.5 mM probenecid (Life Technologies). […] The calcium signal was recorded for 90 s after injection of a range of compounds using a Flexstation 3 fluorometric imaging plate reader (Molecular Devices) at a wavelength of 510 nm after excitation at 488 nm. All substance concentrations were measured in triplicate in at least three independent experiments. […]
(§3) To obtain a dose–response curve, the ratio between the maximum variation in fluorescence after ligand addition and the initial fluorescence before addition (ΔF/F0) was calculated for each well. The fluorescence signals collected for each replicate were averaged for the same substance concentration, and the fluorescence changes in the corresponding mock-transfected cells were subtracted. […]

[2] = system: 25 human TAS2Rs; test: Taste receptor functional assay, panel of 25 human TAS2Rs; type: cell-based; settings: lowest concentration that could elicit TAS2R activation
Description: A functional expression study was carried out as described previously. TAS2R expression vectors (pcDNA5FRT-SST3-TAS2R-HSV and pEAK-10-SST3-TAS2RHSV) were kindly provided by Wolfgang Meyerhof (German Institute of Human Nutrition Postdam-Rehbruecke, Nuthetal, Germany). For all constructs, the N-terminus contained the first 45 amino acids of rat somatostatin 3 (SST3) to improve membrane targeting. A sequence coding for a herpes simplex virus glycoprotein D epitope (HSV-tag) was added at the C-terminus to allow immunocytochemical detection of the receptor [13, 14, 23, 24]. […]
as §2

[3] = system: human bitter taste detection (sensory panel); test: Human bitter taste detection threshold, three-alternative forced choice (3-AFC), BET method; type: in vivo; settings: 32 panelists, group BET
Description: Based on bibliographic studies, preliminary works performed in the laboratory, and the results of taste receptor functional assays, the following vitamins were included in this study: vitamin B1 (thiamine hydrochloride), vitamin B2 (riboflavin phosphate), vitamin B3 (niacinamide), and vitamin B6 (pyridoxine hydrochloride). These vitamins are present in high quantities in nutritional supplements, safe for humans (except at very high concentrations), and can induce a strong bitter taste. These concentrations were determined according to the toxicity threshold of each compound tested and the maximum daily reference intake. These compounds were prepared in commercial mineral water (Evian®, Evian, France).
The threshold values for bitter taste detection were determined by 32 panelists (18–65 years old, 14 males and 18 females, without sensory perception disorders, food allergies, drug treatments, or heart, lung, or cardiac pathologies) who were recruited from Dijon (France) and the surrounding areas. An ethical committee approved this study (Personal Protection Committee of Rennes—Ouest V, protocol code 2018A01342-53), and all panelists signed an informed consent form. A sensory test called three-alternative forced choice (3-AFC) was used in accordance with the protocol detailed in NF ISO 13301. Before performing the measurement sessions, four training sessions were provided to familiarize the panelists with the bitter taste, test procedure, and signal acquisition software. In this discriminative test, six series consisting of three samples, which were each encoded using randomly generated three-digit numbers, were simultaneously delivered to the panelists. The six 3-AFC presentations contained two blank samples (commercial mineral water, manufacturer: Evian, France) and ascending concentrations of vitamin solution. Before the test, subjects were advised that each presentation consisted of two samples that contained only water and one sample that contained a taste. For each 3-AFC presentation, subjects were asked to take the samples sequentially from left to right. Then, they placed the entirety of each sample solution in their mouths and carefully gargled to ensure that the solution was dispersed throughout the mouth. A sip-and-spit procedure was used; subjects rinsed their mouths with commercial mineral water between each series of tests. Subjects were asked to indicate which of the samples contained the stimulus. If a subject perceived no difference between the three samples, he or she was asked to choose one (forced choice). The sensory tests were conducted in a room devoted to sensory evaluation. For the case of colored samples, black-colored glasses were used, and tastings were performed under red light. […] The aim of this sensory analysis was to determine the bitter taste detection threshold for these vitamins and not an olfactory detection threshold. Therefore, the measurements were conducted using pinched nose clips. The subjects waited one minute between each series and had to thoroughly rinse their mouths. Four repetitions were performed per subject for each vitamin to obtain statistically interpretable results, which represented a total of 288 samples. During the sensory analysis session, a bitterness detection threshold of only two vitamins was used (36 samples) to avoid the ingestion of a high vitamin quantity, which is potentially harmful. The answers from the panelists were collected using software dedicated to sensory analysis (FIZZ acquisition V.2.51 software).
The best estimate threshold (BET) method was used to determine the bitter detection threshold for four vitamins. The individual best-estimated detection threshold (BET) was proposed in ASTM E679-04. ASTM E679-04 is a standard practice for the determination of odor and taste thresholds via a forced-choice ascending concentration series method of limits. […]

[4] = target: T2, TAS2R7 (Homo sapiens, UniProt Q9NYW3); test: Calcium mobilization assay, cells transiently expressing TAS2R7; type: cell-based; design: expressed in transfected cells; host or cells: HEK293T cells stably expressing Gα16gust44; as to TAS2R Receptor 7 response: key: +: positive responses (lines with background color)
T2 sequence (Q9NYW3 1-318): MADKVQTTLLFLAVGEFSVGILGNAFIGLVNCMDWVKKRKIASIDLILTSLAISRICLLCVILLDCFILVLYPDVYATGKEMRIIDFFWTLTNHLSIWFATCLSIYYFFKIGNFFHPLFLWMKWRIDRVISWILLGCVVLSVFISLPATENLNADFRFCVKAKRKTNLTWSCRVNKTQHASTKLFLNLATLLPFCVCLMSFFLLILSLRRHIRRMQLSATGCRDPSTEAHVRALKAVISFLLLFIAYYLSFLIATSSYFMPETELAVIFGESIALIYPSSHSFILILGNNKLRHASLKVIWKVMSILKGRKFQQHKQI
Description: A functional expression study was carried out as described previously. TAS2R expression vectors (pcDNA5FRT-SST3-TAS2R-HSV and pEAK-10-SST3-TAS2RHSV) were kindly provided by Wolfgang Meyerhof (German Institute of Human Nutrition Postdam-Rehbruecke, Nuthetal, Germany). For all constructs, the N-terminus contained the first 45 amino acids of rat somatostatin 3 (SST3) to improve membrane targeting. A sequence coding for a herpes simplex virus glycoprotein D epitope (HSV-tag) was added at the C-terminus to allow immunocytochemical detection of the receptor [13, 14, 23, 24]. HEK293T cells stably expressing the chimeric G protein α subunit Gα16gust44 [25, 26] were seeded into poly-D-lysine-coated 96-well black plates (0.35 × 10^5 cells/well) in high-glucose DMEM supplemented with 2 mM GlutaMAX, 10% dialysed fetal bovine serum penicillin/streptomycin, and G418 (400 µg/mL), and then placed under a humidified and controlled atmosphere (37 °C and 6.3% CO2) overnight. After 24–26 h of incubation, cells were transiently transfected with TAS2R expression plasmids (120 ng/well) using Lipofectamine 2000 reagent (0.4 µL/well) (Thermo Fisher Scientific, Illkirch-Graffenstaden, France).
Approximately 24–26 h after transfection, cells were loaded for 1 h at 37 °C with Fluo4-AM (2 µM, Molecular Probes), which had been previously mixed with pluronic acid F-127 (0.01%) in C1 buffer (130 mM NaCl, 5 mM KCl, 10 mM HEPES, 2 mM CaCl2, 10 mM pyruvic acid, pH 7.4, 300 mOsm) containing 2.5 mM probenecid (Life Technologies). Approximately one hour after loading, the plate was rinsed twice with 100 µL of C1 buffer. The calcium signal was recorded for 90 s after injection of a range of compounds using a Flexstation 3 fluorometric imaging plate reader (Molecular Devices) at a wavelength of 510 nm after excitation at 488 nm. All substance concentrations were measured in triplicate in at least three independent experiments. As cell transfection and substances can interfere with cellular viability and calcium assays, all compounds were tested on mock-transfected cells (cells transfected with empty vectors) on the same plates for all substance concentrations used.
(§4) To obtain a dose–response curve, the ratio between the maximum variation in fluorescence after ligand addition and the initial fluorescence before addition (ΔF/F0) was calculated for each well. The fluorescence signals collected for each replicate were averaged for the same substance concentration, and the fluorescence changes in the corresponding mock-transfected cells were subtracted. […] The dose–response data were fitted, and EC50 values were calculated using a four-parameter logistic equation using SigmaPlot software (Systat Software, San Jose, CA, USA). […]

[5] = target: T3, TAS2R38 (Homo sapiens, UniProt P59533); test: Calcium mobilization assay, cells transiently expressing TAS2R38; type: cell-based; as to TAS2R Receptor 38 response: key: +: positive responses (lines with background color)
T3 construct: expressed in transfected cells; host or cells: HEK293T cells stably expressing Gα16gust44
T3 sequence (P59533 1-333): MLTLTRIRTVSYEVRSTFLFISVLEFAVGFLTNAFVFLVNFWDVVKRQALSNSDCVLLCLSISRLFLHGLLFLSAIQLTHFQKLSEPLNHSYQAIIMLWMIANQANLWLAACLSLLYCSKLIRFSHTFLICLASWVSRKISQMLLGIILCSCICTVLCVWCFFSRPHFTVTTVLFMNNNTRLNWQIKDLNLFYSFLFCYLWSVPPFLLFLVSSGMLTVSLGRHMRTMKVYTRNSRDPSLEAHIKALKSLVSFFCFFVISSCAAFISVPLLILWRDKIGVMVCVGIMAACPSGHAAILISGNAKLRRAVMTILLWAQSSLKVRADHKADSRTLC
Description: as §1, §2, §3

[6] = target: T4, TAS2R10 (Homo sapiens, UniProt Q9NYW0); test: Calcium mobilization assay, cells transiently expressing TAS2R10; type: cell-based; as to TAS2R Receptor 10 response: key: +: positive responses (lines with background color)
T4 construct: expressed in transfected cells; host or cells: HEK293T cells stably expressing Gα16gust44
T4 sequence (Q9NYW0 1-307): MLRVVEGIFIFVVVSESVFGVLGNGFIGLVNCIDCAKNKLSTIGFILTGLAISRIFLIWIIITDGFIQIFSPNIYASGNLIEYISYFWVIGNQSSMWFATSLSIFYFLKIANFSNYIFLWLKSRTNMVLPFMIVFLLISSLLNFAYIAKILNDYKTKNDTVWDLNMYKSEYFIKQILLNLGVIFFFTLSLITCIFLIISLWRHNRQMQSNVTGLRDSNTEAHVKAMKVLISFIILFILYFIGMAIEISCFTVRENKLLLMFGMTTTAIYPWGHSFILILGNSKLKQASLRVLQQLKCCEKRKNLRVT
Description: as §1
Approximately one hour after loading, the plate was rinsed twice with 100 µL of C1 buffer. The calcium signal was recorded for 90 s after injection of a range of compounds using a Flexstation 3 fluorometric imaging plate reader (Molecular Devices) at a wavelength of 510 nm after excitation at 488 nm. All substance concentrations were measured in triplicate in at least three independent experiments. […]
as §4

[7] = system: human taste perception; design: method as in doi:10.3758/BF03203878; settings: concentration omitted in the cited paper; cited from earlier work
[8] = HEK293T-Gα16gust44 cells, calcium signal, up to M.A.C

With `Cc1ncc(CO)c(CO)c1O` [Vitamin B6, pyridoxine hydrochloride] the TAS2R14 response ([1]; 100 mM) was “robust response”, the “TAS2R Receptor 14 response” value [1, 8] was “+” and the EC50 ([1]; TAS2R14-expressing HEK293T cells, Fluo-4 calcium response, read-out: EC50 (half-maximal TAS2R14 activation)) was 10.5 ± 1.47 mM. For the same molecule, the “Cellular Bitter Taste Detection Threshold” value [2] was 1 mM and 1.00 mM, the “Human Bitter Taste Detection Threshold” value ([3]; Figure 3, aqueous solution) was 5.2 mM and the “Human Bitter Taste Detection Threshold” value ([3]; aqueous solution (mineral water), nose clips, listed as B6) was 5.20 mM. The “Human Bitter Taste Detection Threshold” value ([3]; aqueous solution (mineral water), nose clips, listed as vitamin B6) was 5.2 mM, the TAS2R7 response ([4]; 100 mM) was “robust response” and the “TAS2R Receptor 7 response” value [4, 8] was “+”. The EC50 ([4]; TAS2R7-expressing HEK293T cells, Fluo-4 calcium response, read-out: EC50 (half-maximal TAS2R7 activation)) was 25.5 ± 11.8 mM.

In the case of `CC1=C(/C=C/C(C)=C/C=C/C(C)=C/C=O)C(C)(C)CCC1` [Vitamin A, retinal], the TAS2R38 activation ([5]; 1 mM) is reported as “strongly activate”, the “TAS2R Receptor 38 response” value [5, 8] is reported as “+” and the EC50 ([5]; TAS2R38-expressing HEK293T cells, Fluo-4 calcium response, read-out: EC50 (half-maximal TAS2R38 activation)) is reported as 0.29 ± 0.2 mM.

With `C=C1CC[C@H](O)C/C1=C/C=C1\CCC[C@]2(C)[C@@H]([C@H](C)CCCC(C)C)CC[C@@H]12` [Vitamin D, cholecalciferol] the TAS2R10 activation ([6]; 1 mM) was “strongly activate”, the “TAS2R Receptor 10 response” value [6, 8] was “+” and the EC50 ([6]; read-out: EC50 (half-maximal TAS2R10 activation), TAS2R10-expressing HEK293T cells, Fluo-4 calcium response) was 0.25 ± 0.2 mM. The “Taste described by sensory analysis” value [7] was “tasteless”.
